Structures can show the parent of a compound that is named as a salt.
Assay: Solid form stability on storage (XRPD re-analysis)
Type: physicochemical
Settings: stored at 40° C./75% RH for 22 h
Protocol: The solids were dried under vacuum at ambient temperature (about 23° C.) for 17 h. The solids on the XRPD plate were stored at 40° C./75% RH for 22 h then re-analyzed. Amorphous and a mixture of Compound I dihydrochloride Form 2 and Form 6 were obtained (Table 7).
The solids were isolated by filtration after a total of 27.5 h at 5° C. and washed with 0.6 mL of cold acetone or 3×0.6 mL of cold heptane. The solids were dried under vacuum at ambient temperature (about 23° C.) for 17 h. The solids on the XRPD plate were stored at 40° C./75% RH for 22 h then re-analyzed by XRPD. Results, which are summarized in Table 8, show mixtures of Compound I dihydrochloride Forms 5 and 6, 5, 2 and 1, and 2 were obtained.
1.0 mL of water was added to approximately 300 mg of Compound I dihydrochloride Form 1. The resulting mixture was magnetically stirred at 50° C. over about 15 min, then stirred at 50° C. for 0.25 h. The solution was polish filtered (0.45 μm PTFE filter) into a 2 mL push-cap vial and then stirred at 50° C. for 0.25 h, prior to cooling to 5° C. at 0.1° C./min. After 62 h at 5° C., the experiment was sub-sampled and the solid was analyzed by XRPD. The material on the XRPD plate was dried under vacuum at 35° C. under a stream of wet nitrogen (20-38% RH) for about 9 h and then re-analyzed by XRPD. The material on the XRPD plate was stored at 25° C./60% RH for 22 h and then re-analyzed by XRPD. After a total of 87 h at 5° C., solids were isolated by centrifugation (0.22 μm nylon filter) and analyzed by XRPD. The solids were air-dried at ambient temperature (about 22° C.) for 24 h.
Small-scale crystallization Experiment 7 was sub-sampled prior to ASA and after ASA was complete, with solids isolated by centrifugation (0.22 μm nylon filter) and analyzed by XRPD.
Approximately 10 g of Compound I dihydrochloride Form 1 was dissolved in 67 mL of ethanol:water 99:1 v/v at about 60° C. (initial concentration: 150 mg/mL). Polish filtration was carried out (0.2 μm PTFE filter). The solution was transferred to a 250 mL vessel at 60° C. and stirred at 50° C. (solution temperature) and 300 rpm for about 5 min. The solution was seeded with about 100 mg (1 wt. %) of Compound I dihydrochloride Form 2, isolated from small-scale crystallization Experiments 12 and 13, from example 4 above. The seed dissolved rapidly. Anti-solvent addition of 10 mL of heptane (1 volume) was carried out at 2 vol/h (Heptane content of 13%). The solution was re-seeded with a further 100 mg (1 wt. %) of Form 2, isolated from small-scale crystallization Experiment 12. The seed persisted and a slurry formed. The slurry was stirred at 50° C. for 1 h and then anti-solvent addition of 131 mL of heptane at 1.5 vol/h was carried out, to reach 60% heptane. […] An additional 2 volumes of ethanol:water 99:1 v/v was added at the beginning of the ASA to mobilize the slurry. Once ASA was complete, the slurry was cooled to 5° C. at 0.1° C./min. The experiment was sub-sampled after about 2 h at 5° C. The slurry was thick but mixing. After 3.5 h at 5° C., an additional 3.6 mL of water was added to increase the water content to 2% (ethanol:water:heptane ratio of 39:2:59 v/v/v). The experiment was sub-sampled again after 2 h at 5° C. with additional water. After a total of 10 h at 5° C., solids were isolated by filtration and washed with 2 volumes of cold (5° C.) ethanol:heptane 40:60 v/v. The solids were filtered and dried under vacuum at ambient temperature (about 21° C.) for 14.5 h, then analyzed by XRPD.

SMILES: CC[C@H]1CN2CCc3cc(OC)c(OC)cc3[C@@H]2C[C@@H]1C[C@H]1NCCc2cc(OC)c(OC)cc21 [Amorphous Compound I dihydrochloride]
- Solid form by XRPD after storage: amorphous Compound I dihydrochloride was obtained

Reference: patent publication US12528805B2, “Solid forms of emetine” (Acer Therapeutics, Inc., priority 2020, dated 2026)
